Experimental data: patent US9334264B2, “NAMPT inhibitors” (AbbVie Inc., priority 2012, dated 2016)

Assays:
[1] = target: NAMPT (human, recombinant, C-terminally His-tagged) (Homo sapiens, UniProt P43490); test: Time-Resolved Fluorescence Resonance Energy Transfer (TR-FRET) Binding Assay of NAMPT; settings: absence of substrates; 6.8 nM NAMPT, 200 nM probe, equilibrated 3 hours
Method in brief: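 Compounds (typically 11 half-log dilutions, 2% DMSO final) equilibrated 3 h at room temperature with 6.8 nM human C-His NAMPT, 1 nM Tb-anti-His antibody and 200 nM fluorescent competitive probe in pH 7.5 HEPES buffer. IC50 derived by logistic fit of normalized TR-FRET ratio (520/495 nm).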

NAMPT = NAMPT (Homo sapiens, UniProt P43490); test: Time-Resolved Fluorescence Resonance Energy Transfer (TR-FRET) Binding Assay of NAMPT with PRPP; settings: 200 μM PRPP and 2.5 mM ATP; 2 nM NAMPT, 2 nM probe, equilibrated 16 hours
Chain of NAMPT (P43490 whole entry): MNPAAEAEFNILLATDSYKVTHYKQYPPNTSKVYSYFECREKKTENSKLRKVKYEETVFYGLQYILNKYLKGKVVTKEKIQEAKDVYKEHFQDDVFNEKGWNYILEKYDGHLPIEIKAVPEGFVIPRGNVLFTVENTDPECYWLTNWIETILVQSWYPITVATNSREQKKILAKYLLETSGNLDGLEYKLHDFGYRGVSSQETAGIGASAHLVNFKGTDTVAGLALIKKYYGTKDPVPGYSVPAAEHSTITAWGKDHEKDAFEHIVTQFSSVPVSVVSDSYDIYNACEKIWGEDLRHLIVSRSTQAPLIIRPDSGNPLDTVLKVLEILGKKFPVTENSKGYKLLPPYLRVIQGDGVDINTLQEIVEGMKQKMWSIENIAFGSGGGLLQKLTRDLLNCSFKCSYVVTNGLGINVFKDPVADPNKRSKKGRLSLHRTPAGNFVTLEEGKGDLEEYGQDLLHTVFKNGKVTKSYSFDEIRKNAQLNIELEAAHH
Method in brief: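 Compounds were equilibrated for 16 hours before TR-FRET readout, with substrates present (200 μM PRPP, 2.5 mM ATP) to permit enzymatic modification. Final mix: 2 nM His-tagged NAMPT, 2 nM probe, 1 nM Tb-anti-His antibody, 2% DMSO.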

Chain of NAMPT (human, recombinant, C-terminally His-tagged) (P43490 whole entry): as above

Row | IC50 [1] [nM] | IC50 (NAMPT) [nM] | SMILES
1 | > 10000 | 215 | CCOC(=O)CC(C)NC(=O)N(Cc1ccc(C#N)cc1)c1ncc(C(=O)NCCCn2ccnc2)s1 (stereo not drawn) [Example 161, ethyl 3-{[(4-cyanobenzyl)(5-{[3-(1H-imidazol-1-yl)propyl]carbamoyl}-1,3-thiazol-2-yl)carbamoyl]amino}butanoate]
2 | > 10000 | 33.2 | CCN(CC)CCCNC(=O)N(Cc1ccc(C#N)cc1)c1ncc(C(=O)NCCCn2ccnc2)s1 [Example 144, 2-[(4-cyanobenzyl){[3-(diethylamino)propyl]carbamoyl}amino]-N-[3-(1H-imidazol-1-yl)propyl]-1,3-thiazole-5-carboxamide]
3 | > 10000 | 0.493 | COCCC(=O)N(CCNC(=O)C(C)C)c1ncc(C(=O)NCCCn2ccnc2)s1 [Example 199, N-[3-(1H-imidazol-1-yl)propyl]-2-[(3-methoxypropanoyl){2-[(2-methylpropanoyl)amino]ethyl}amino]-1,3-thiazole-5-carboxamide]
4 | > 10000 | 1160 | CC(C)CCN(Cc1ccccc1Cl)c1ncc(C(=O)NCCCn2ccnc2)s1 [Example 57, 2-[(2-chlorobenzyl)(3-methylbutyl)amino]-N-[3-(1H-imidazol-1-yl)propyl]-1,3-thiazole-5-carboxamide]
5 | 533 | 0.7 | CCN(CCOC)C(=O)N(Cc1ccc(F)cc1)c1ncc(C(=O)NCCCn2ccnc2)s1 [Example 71, 2-{[ethyl(2-methoxyethyl)carbamoyl](4-fluorobenzyl)amino}-N-[3-(1H-imidazol-1-yl)propyl]-1,3-thiazole-5-carboxamide]
6 | 1420 | 3.6 | COCCC(=O)N(Cc1cnc(C)cn1)c1ncc(C(=O)NCCCn2ccnc2)s1 [Example 115, N-[3-(1H-imidazol-1-yl)propyl]-2-{(3-methoxypropanoyl)[(5-methylpyrazin-2-yl)methyl]amino}-1,3-thiazole-5-carboxamide]
7 | 1990 | 2.31 | COCCC(=O)N(Cc1ccc(Cl)cc1)c1ncc(C(=O)NCCCn2ccnc2)s1 [Example 114, 2-[(4-chlorobenzyl)(3-methoxypropanoyl)amino]-N-[3-(1H-imidazol-1-yl)propyl]-1,3-thiazole-5-carboxamide]
8 | 2900 | 0.969 | CCCOCCNC(=O)N(Cc1ccc(F)cc1)c1ncc(C(=O)NCCCn2ccnc2)s1 [Example 78, 2-{(4-fluorobenzyl)[(2-propoxyethyl)carbamoyl]amino}-N-[3-(1H-imidazol-1-yl)propyl]-1,3-thiazole-5-carboxamide]
9 | 4620 | 0.653 | COCCC(=O)N(CC1CCCCO1)c1ncc(C(=O)NCCCn2ccnc2)s1 (stereo not drawn) [Example 177, N-[3-(1H-imidazol-1-yl)propyl]-2-[(3-methoxypropanoyl)(tetrahydro-2H-pyran-2-ylmethyl)amino]-1,3-thiazole-5-carboxamide]
10 | 55.5 | 0.541 | CC(C)CCN(C(=O)C(C)c1ccccc1)c1ncc(C(=O)NCCCn2ccnc2)s1 (stereo not drawn) [Example 138, N-[3-(1H-imidazol-1-yl)propyl]-2-[(3-methylbutyl)(2-phenylpropanoyl)amino]-1,3-thiazole-5-carboxamide]
11 | > 10000 | 0.712 | N#Cc1ccc(CN(C(=O)NCCOCCO)c2ncc(C(=O)NCCCn3ccnc3)s2)cc1 [Example 125, 2-[(4-cyanobenzyl){[2-(2-hydroxyethoxy)ethyl]carbamoyl}amino]-N-[3-(1H-imidazol-1-yl)propyl]-1,3-thiazole-5-carboxamide]
12 | 2870 | 1.22 | COCCC(=O)N(Cc1ccnc(OC)c1)c1ncc(C(=O)NCCCn2ccnc2)s1 [Example 94, N-[3-(1H-imidazol-1-yl)propyl]-2-{(3-methoxypropanoyl)[(2-methoxypyridin-4-yl)methyl]amino}-1,3-thiazole-5-carboxamide]
13 | 3820 | 0.631 | CC(C)OCCNC(=O)N(Cc1ccc(C#N)cc1)c1ncc(C(=O)NCCCn2ccnc2)s1 [Example 123, 2-[(4-cyanobenzyl){[2-(propan-2-yloxy)ethyl]carbamoyl}amino]-N-[3-(1H-imidazol-1-yl)propyl]-1,3-thiazole-5-carboxamide]
14 | > 10000 | 0.262 | COCCC(=O)N(CCCN1CCCC1)c1ncc(C(=O)NCCCn2ccnc2)s1 [Example 192, N-[3-(1H-imidazol-1-yl)propyl]-2-{(3-methoxypropanoyl)[3-(pyrrolidin-1-yl)propyl]amino}-1,3-thiazole-5-carboxamide]
15 | > 10000 | 0.868 | O=C(NCCCn1ccnc1)c1cnc(N(Cc2ccc(F)cc2)C(=O)NC2CCCOC2)s1 (stereo not drawn) [Example 92, 2-[(4-fluorobenzyl)(tetrahydro-2H-pyran-3-ylcarbamoyl)amino]-N-[3-(1H-imidazol-1-yl)propyl]-1,3-thiazole-5-carboxamide]
16 | 1850 | 2.97 | CC(C)CNC(=O)N(Cc1ccc(F)cc1)c1ncc(C(=O)NCCCn2ccnc2)s1 [Example 64, 2-{(4-fluorobenzyl)[(2-methylpropyl)carbamoyl]amino}-N-[3-(1H-imidazol-1-yl)propyl]-1,3-thiazole-5-carboxamide]
17 | 1220 | 0.548 | O=C(NCCCn1ccnc1)c1cnc(N(Cc2ccc(F)cc2)C(=O)CC2CCOCC2)s1 [Example 4, 2-[(4-fluorobenzyl)(tetrahydro-2H-pyran-4-ylacetyl)amino]-N-[3-(1H-imidazol-1-yl)propyl]-1,3-thiazole-5-carboxamide]
18 | 445 | 1.31 | COCCC(=O)N(CCc1cccc(F)c1)c1ncc(C(=O)NCCCn2ccnc2)s1 [Example 104, 2-{[2-(3-fluorophenyl)ethyl](3-methoxypropanoyl)amino}-N-[3-(1H-imidazol-1-yl)propyl]-1,3-thiazole-5-carboxamide acetate (1:1)]
19 | > 10000 | 266 | CC(C)CCN(Cc1ccc(Cl)cc1)c1ncc(C(=O)NCCCn2ccnc2)s1 [Example 59, 2-[(4-chlorobenzyl)(3-methylbutyl)amino]-N-[3-(1H-imidazol-1-yl)propyl]-1,3-thiazole-5-carboxamide]
20 | 669 | 0.254 | CC(C)CCN(C(=O)C1CCOC1)c1ncc(C(=O)NCCCn2ccnc2)s1 (stereo not drawn) [Example 155, N-[3-(1H-imidazol-1-yl)propyl]-2-[(3-methylbutyl)(tetrahydrofuran-3-ylcarbonyl)amino]-1,3-thiazole-5-carboxamide]
21 | 4180 | 1.3 | CC(C)OCCCNC(=O)N(Cc1ccc(C#N)cc1)c1ncc(C(=O)NCCCn2ccnc2)s1 [Example 126, 2-[(4-cyanobenzyl){[3-(propan-2-yloxy)propyl]carbamoyl}amino]-N-[3-(1H-imidazol-1-yl)propyl]-1,3-thiazole-5-carboxamide]
22 | 768 | 0.232 | CC(C)CCN(C(=O)C1CC1)c1ncc(C(=O)NCCCn2ccnc2)s1 [Example 152, 2-[(cyclopropylcarbonyl)(3-methylbutyl)amino]-N-[3-(1H-imidazol-1-yl)propyl]-1,3-thiazole-5-carboxamide]
23 | 2610 | 0.606 | CCN(CC)CCCN(C(=O)CCOC)c1ncc(C(=O)NCCCn2ccnc2)s1 [Example 190, 2-{[3-(diethylamino)propyl](3-methoxypropanoyl)amino}-N-[3-(1H-imidazol-1-yl)propyl]-1,3-thiazole-5-carboxamide]
24 | 56.1 | 0.251 | CC(C)CCN(C(=O)Cc1ccc(F)cc1)c1ncc(C(=O)NCCCn2ccnc2)s1 [Example 139, 2-{[(4-fluorophenyl)acetyl](3-methylbutyl)amino}-N-[3-(1H-imidazol-1-yl)propyl]-1,3-thiazole-5-carboxamide]
25 | > 10000 | 630 | COCCCNC(=O)N(Cc1ccc(C#N)cc1)c1ncc(C(=O)NCCCn2ccnc2)s1 [Example 166, 2-{(4-cyanobenzyl)[(3-methoxypropyl)carbamoyl]amino}-N-[3-(1H-imidazol-1-yl)propyl]-1,3-thiazole-5-carboxamide]
26 | 3730 | 1.46 | O=C(NCCCn1ccnc1)c1cnc(N2CCN(c3ccc(F)cc3)C2=O)s1 [Example 204, 2-[3-(4-fluorophenyl)-2-oxoimidazolidin-1-yl]-N-[3-(1H-imidazol-1-yl)propyl]-1,3-thiazole-5-carboxamide]
27 | 7250 | 1.12 | COCCC(=O)N(CC1CCC(=O)N1)c1ncc(C(=O)NCCCn2ccnc2)s1 (stereo not drawn) [Example 194, N-[3-(1H-imidazol-1-yl)propyl]-2-{(3-methoxypropanoyl)[(5-oxopyrrolidin-2-yl)methyl]amino}-1,3-thiazole-5-carboxamide]
28 | 763 | 0.285 | COCCN(C(=O)Cc1cccnc1)c1ncc(C(=O)NCCCn2ccnc2)s1 [Example 184, N-[3-(1H-imidazol-1-yl)propyl]-2-[(2-methoxyethyl)(pyridin-3-ylacetyl)amino]-1,3-thiazole-5-carboxamide]
29 | > 10000 | 2.16 | O=C(NCCCn1ccnc1)c1cnc(N(Cc2ccc(F)cc2)C(=O)CN2CCC(O)CC2)s1 [Example 29, 2-{(4-fluorobenzyl)[(4-hydroxypiperidin-1-yl)acetyl]amino}-N-[3-(1H-imidazol-1-yl)propyl]-1,3-thiazole-5-carboxamide]
30 | > 10000 | 0.602 | O=C(NCCCn1ccnc1)c1cnc(N(Cc2ccc(F)cc2)C(=O)NCC2COCCO2)s1 (stereo not drawn) [Example 88, 2-{[(1,4-dioxan-2-ylmethyl)carbamoyl](4-fluorobenzyl)amino}-N-[3-(1H-imidazol-1-yl)propyl]-1,3-thiazole-5-carboxamide]
